According to publication PMC6173406, “Design and evaluation of selective butyrylcholinesterase inhibitors based on Cinchona alkaloid scaffold” (PLoS ONE, 2018):
Read-outs that look alike come from different tables or passages of the source.

Columns and labels:
human BChE = target: T1, human BChE (Homo sapiens, UniProt P06276); test: Reversible inhibition of human BChE, Ellman method with ATCh, Hunter-Downs analysis; format: biochemical; design: key to BChE type of inhibition: c, n and m stands for competitive, noncompetitive and mixed type of inhibition; c, n and m stands for competitive, noncompetitive and mixed type of inhibition; c, n and m stands for competitive, noncompetitive and mixed type of inhibition; conditions: for BChE Ks: enzyme-substrate (ATCh) dissociation constant derived from the inhibition kinetics with the compound; for Ki(AChE)/ Ki (BChE): inhibition selectivity, ratio of Ki constants for AChE and BChE; for BChE inhibition potency compared to CD-Met: fold more potent than CD-Met; for BChE affinity lower compared to CD-(pBr): fold lower affinity than CD-(pBr)
T1 construct: gift of Dr. F. Nachon (Département de Toxicologie, Armed Forces Biomedical Research Institute, France)
Experimental: (§1) Purified human BChE and recombinant human AChE were kindly provided by Dr. F. Nachon (Département de Toxicologie, Armed Forces Biomedical Research Institute, France). The concentration of enzymes (BChE: 5.6 μM; AChE: 0.20 μM) was determined as described previously. The concentrated stocks of enzymes were diluted in a phosphate sodium buffer 0.1 M (pH 7.4) containing 0.1% BSA.
(§2) Enzyme activities were measured spectrophotometrically by Ellman method at 412 nm using 0.30 mM DTNB as thiol reagent and ATCh (0.050–0.50 mM) as substrate in 0.1 M phosphate buffer, pH 7.4 [29, 30]. For the inhibition, the reaction mixture also contained cinchonidines or cinchonines (final concentrations 0.020–200 μM, depending on compound). In the case of compounds CD-(pCl) and CN-(pCl), the final content of DMSO was the same in enzyme activity measurement and in inhibition measurements, up to 0.32%. No side interactions of tested compounds with ATCh or DTNB were detected. Measurements were done at 25 °C on a Tecan Infinite M200Pro plate reader (Austria).
(§3) The reversible inhibition of BChE and AChE by cinchonines and cinchonidines was measured by determining the decrease of enzyme activity towards ATCh (0.050–0.50 mM) in their presence. The activities of the enzymes were measured at different substrate concentrations ([S]) in the absence (v0) and presence (vi) of given cinchonines and cinchonidines concentration ([I]) selected to inhibit the enzymes for 20–80%. At least three concentrations of inhibitors for each substrate concentration were used in at least two experiments. The apparent dissociation inhibition constant (Ki,app) was calculated using the Hunter-Downs equation and the linear regression analysis: Ki,app=vi/v0−vi⋅[I]=K(I)+K(I)/K(S)⋅[S] where y-intercept determines the enzyme-inhibitor dissociation constants (K(I)), while x-intercept determines the enzyme-substrate dissociation constant, K(S). The equation was used with the assumption that the substrate, due to relatively low substrate concentrations used in experiments, binds only to the catalytic site, while inhibitor can bind to both sites catalytic and peripheral site. In other words, if the inhibitor competes with substrate for binding to the catalytic site of the enzyme, Ki,app proportionally depend on the substrate concentration. […] The curve means that the inhibitor binds not only to the catalytic or peripheral site but also to intermediates of Michaelis type of the enzyme-substrate complex.

human AChE = target: T2, human AChE (Homo sapiens, UniProt P22303); test: Reversible inhibition of human AChE, Ellman method with ATCh, Hunter-Downs analysis; format: biochemical; design: key to AChE type of inhibition: c, n and m stands for competitive, noncompetitive and mixed type of inhibition; c, n and m stands for competitive, noncompetitive and mixed type of inhibition; c, n and m stands for competitive, noncompetitive and mixed type of inhibition; conditions: for AChE affinity lower than for the highest-affinity compounds: compared to CD-(mNO2) and CD-(mCH3); for Ki: enzyme-inhibitor dissociation constant ± standard error, ATCh 0.050–0.50 mM, pH 7.4, 25 °C; for AChE Ks: enzyme-substrate (ATCh) dissociation constant derived from the inhibition kinetics with the compound; for AChE type of inhibition: symbol in brackets after Ki
T2 construct: gift of Dr. F. Nachon (Département de Toxicologie, Armed Forces Biomedical Research Institute, France)
Experimental: as §1, §2, §3

[1] = enzyme-inhibitor dissociation constant ± standard error, ATCh 0.050–0.50 mM, pH 7.4, 25 °C
[2] = ratio of Ki of cinchonine to Ki of the pseudo-enantiomeric cinchonidine
[3] = substrate concentrations higher than 0.35 mM, deviation from linearity in Hunter-Downs plot

T2 sequence (P22303 32-614): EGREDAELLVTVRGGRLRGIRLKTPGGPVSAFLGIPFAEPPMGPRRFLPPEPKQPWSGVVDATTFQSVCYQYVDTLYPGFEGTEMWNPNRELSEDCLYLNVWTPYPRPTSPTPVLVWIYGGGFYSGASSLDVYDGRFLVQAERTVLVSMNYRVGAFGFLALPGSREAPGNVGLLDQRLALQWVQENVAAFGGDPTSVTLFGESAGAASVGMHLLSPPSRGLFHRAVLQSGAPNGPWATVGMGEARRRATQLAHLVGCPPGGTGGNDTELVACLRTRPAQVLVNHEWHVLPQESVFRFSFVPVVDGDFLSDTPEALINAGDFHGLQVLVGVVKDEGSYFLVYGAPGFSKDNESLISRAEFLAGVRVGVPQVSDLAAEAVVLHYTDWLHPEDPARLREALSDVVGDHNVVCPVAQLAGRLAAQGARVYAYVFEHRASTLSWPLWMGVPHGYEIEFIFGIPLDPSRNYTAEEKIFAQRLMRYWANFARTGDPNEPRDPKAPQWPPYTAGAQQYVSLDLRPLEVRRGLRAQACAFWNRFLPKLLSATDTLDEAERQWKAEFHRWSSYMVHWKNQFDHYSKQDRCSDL
T1 sequence (P06276 29-602): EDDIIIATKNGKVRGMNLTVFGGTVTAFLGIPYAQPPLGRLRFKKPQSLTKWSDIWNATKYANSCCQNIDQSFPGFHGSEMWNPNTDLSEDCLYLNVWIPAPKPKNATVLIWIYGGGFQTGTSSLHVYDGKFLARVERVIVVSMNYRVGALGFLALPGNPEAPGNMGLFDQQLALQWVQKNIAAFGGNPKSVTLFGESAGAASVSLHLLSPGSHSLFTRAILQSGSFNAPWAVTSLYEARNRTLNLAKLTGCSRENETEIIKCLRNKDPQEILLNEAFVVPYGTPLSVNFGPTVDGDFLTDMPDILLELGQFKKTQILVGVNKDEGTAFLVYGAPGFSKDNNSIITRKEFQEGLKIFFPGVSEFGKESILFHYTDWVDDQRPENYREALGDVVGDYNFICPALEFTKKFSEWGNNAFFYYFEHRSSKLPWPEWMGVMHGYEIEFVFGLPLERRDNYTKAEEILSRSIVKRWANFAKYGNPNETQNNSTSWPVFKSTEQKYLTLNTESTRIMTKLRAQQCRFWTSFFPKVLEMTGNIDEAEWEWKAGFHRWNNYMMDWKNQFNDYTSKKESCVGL

| Compound | Ki (human BChE; [1]) | BChE Ks (human BChE) | Ki(AChE)/ Ki (BChE) (human BChE) | BChE type of inhibition (human BChE; symbol in brackets after Ki) | AChE affinity lower than for the highest-affinity compounds (human AChE) | Ki (human AChE) | BChE inhibition potency compared to CD-Met (human BChE) | AChE Ks (human AChE) | AChE type of inhibition (human AChE) | Ki (human BChE) | AChE stereoselectivity Ki(CN/CD) (human AChE; [2]) | BChE binding preference para- over meta-positioned substituent (human BChE; para compound compared to meta compound) | BChE stereoselectivity Ki(CN/CD) (human BChE; [2]) | BChE type of inhibition (human BChE; [3]) | BChE affinity lower compared to CD-(pBr) (human BChE) |
| --- | --- | --- | --- | --- | --- | --- | --- | --- | --- | --- | --- | --- | --- | --- | --- |
| C=C[C@H]1CN2CC[C@H]1C[C@H]2[C@H](O)c1ccnc2ccccc12 [CD, cinchonidine, reference compound] | 28 ± 4 µM | 0.25 ± 0.05 mM | ~14 | c | about 160 times | > 400 µM |  |  |  |  |  |  |  |  |  |
| C=CC1C[N+]2(Cc3cccc(Br)c3)CCC1CC2C(O)c1ccnc2ccccc12 (centres unmarked) [CD-(mBr), N-(3-bromobenzyl) cinchonidinium bromide] | 0.6 ± 0.03 µM | 0.50 ± 0.05 mM | 33 | m |  | 20 ± 1 µM | 44 times | 0.91 ± 0.08 mM | m |  |  |  |  |  |  |
| C=CC1C[N+]2(Cc3cccc(C)c3)CCC1CC2C(O)c1ccnc2ccccc12 (centres unmarked) [CD-(mCH3), N-(3-methylbenzyl) cinchonidinium bromide] | 0.077 ± 0.006 µM | 0.52 ± 0.08 mM | 39 | m |  | 3 ± 0.3 µM |  | 0.63 ± 0.14 mM | m | ≤ 0.1 µM | 16 |  |  |  |  |
| C=CC1C[N+]2(Cc3cccc(Cl)c3)CCC1CC2C(O)c1ccnc2ccccc12 (centres unmarked) [CD-(mCl), N-(3-chlorobenzyl) cinchonidinium chloride] | 0.24 ± 0.01 µM | 0.53 ± 0.05 mM | 95 | m |  | 23 ± 1 µM |  | 0.74 ± 0.08 mM | c |  |  |  |  |  |  |
| C=CC1C[N+]2(Cc3cccc([N+](=O)[O-])c3)CCC1CC2C(O)c1ccnc2ccccc12 (centres unmarked) [CD-(mNO2), N-(3-nitrobenzyl) cinchonidinium bromide] | 4.7 ± 0.4 µM | 0.62 ± 0.1 mM |  | m |  | 2.5 ± 0.2 µM | only five times higher | 1.0 ± 0.2 mM | c |  |  |  |  |  |  |
| C=CC1C[N+]2(Cc3ccc(Br)cc3)CCC1CC2C(O)c1ccnc2ccccc12 (centres unmarked) [CD-(pBr), N-para-bromobenzyl cinchonidinium bromide] | 0.038 ± 0.005 µM | 0.34 ± 0.07 mM | 510 | c |  | 19 ± 1 µM | 700 times | 2.2 ± 0.524 mM | m | ≤ 0.1 µM |  | 16 times | 92 |  |  |
| C=CC1C[N+]2(Cc3ccc(C)cc3)CCC1CC2C(O)c1ccnc2ccccc12 (centres unmarked) [CD-(pCH3)] | 0.17 ± 0.02 µM | 0.38 ± 0.06 mM | 99 | m |  | 16 ± 1 µM |  | 1.3 ± 0.2 mM | c |  |  |  |  | mixed inhibition |  |
| C=CC1C[N+]2(Cc3ccc(Cl)cc3)CCC1CC2C(O)c1ccnc2ccccc12 (centres unmarked) [CD-(pCl)] | 0.1 ± 0.01 µM | 0.42 ± 0.05 mM | 350 | c |  | 37 ± 4 µM |  |  | n | ≤ 0.1 µM |  |  |  |  |  |
| C=CC1C[N+]2(Cc3ccc([N+](=O)[O-])cc3)CCC1CC2C(O)c1ccnc2ccccc12 (centres unmarked) [CD-(pNO2)] | 6 ± 0.5 µM | 0.38 ± 0.05 mM | 5.9 | c |  | 36 ± 2 µM | only five times higher |  | n |  |  |  |  |  |  |
| C=CC1C[N+]2(Cc3ccccc3)CCC1CC2C(O)c1ccnc2ccccc12 (centres unmarked) [CD-Bzl] | 0.075 ± 0.007 µM | 0.27 ± 0.03 mM | 200 | c |  | 15 ± 2 µM |  | 0.78 ± 0.3 mM | m | ≤ 0.1 µM |  |  |  |  |  |
| C=CC1C[N+]2(C)CCC1CC2C(O)c1ccnc2ccccc12 (centres unmarked) [CD-Met] | 26 ± 4 µM | 0.70 ± 0.22 mM |  | c |  | 67 ± 6 µM |  | 0.70 ± 0.17 mM | c |  |  |  |  |  | approximately 730 times |
| C=C[C@H]1C[N@@]2CC[C@H]1C[C@@H]2[C@@H](O)c1ccnc2ccccc12 [CN, cinchonine, reference compound] | 4.9 ± 1.4 µM | 0.50 ± 0.27 mM |  | c |  | 34 ± 1 µM |  | 0.25 ± 0.01 mM | c |  |  |  |  |  |  |
| C=CC1C[N+]2(Cc3cccc(Br)c3)CCC1CC2C(O)c1ccnc2ccccc12 (centres unmarked) [CN-(mBr)] | 2.3 ± 0.2 µM | 0.48 ± 0.09 mM | 17 | m |  | 39 ± 2 µM |  | 0.73 ± 0.08 mM | m |  |  |  |  |  |  |
| C=CC1C[N+]2(Cc3cccc(C)c3)CCC1CC2C(O)c1ccnc2ccccc12 (centres unmarked) [CN-(mCH3), N-(3-methylbenzyl) cinchoninium bromide] | 4.6 ± 0.4 µM | 0.53 ± 0.00 mM | 11 | m |  | 49 ± 2 µM |  | 0.66 ± 0.06 mM | m |  |  |  |  |  |  |
| C=CC1C[N+]2(Cc3cccc(Cl)c3)CCC1CC2C(O)c1ccnc2ccccc12 (centres unmarked) [CN-(mCl)] | 5.4 ± 0.5 µM | 0.63 ± 0.12 mM | 10 | m |  | 56 ± 8 µM |  | 0.19 ± 0.03 mM | c |  |  |  |  |  |  |
| C=CC1C[N+]2(Cc3cccc([N+](=O)[O-])c3)CCC1CC2C(O)c1ccnc2ccccc12 (centres unmarked) [CN-(mNO2)] | 4.2 ± 0.3 µM | 0.35 ± 0.04 mM | 2.1 | m |  | 8.6 ± 0.5 µM |  | 0.72 ± 0.10 mM | m |  |  |  |  |  |  |
| C=CC1C[N+]2(Cc3ccc(Br)cc3)CCC1CC2C(O)c1ccnc2ccccc12 (centres unmarked) [CN-(pBr)] | 3.5 ± 0.3 µM | 0.44 ± 0.07 mM | 8.8 | c |  | 31 ± 1 µM |  | 2.7 ± 0.9 mM | m |  |  |  |  |  |  |
| C=CC1C[N+]2(Cc3ccc(C)cc3)CCC1CC2C(O)c1ccnc2ccccc12 (centres unmarked) [CN-(pCH3), N-(4-methylbenzyl) cinchoninium bromide] | 3.1 ± 0.3 µM | 0.33 ± 0.05 mM | 13 | c |  | 42 ± 2 µM |  | 2.0 ± 0.2 mM | c |  |  |  |  |  |  |
| C=CC1C[N+]2(Cc3ccc(Cl)cc3)CCC1CC2C(O)c1ccnc2ccccc12 (centres unmarked) [CN-(pCl)] | 6.2 ± 0.8 µM | 0.49 ± 0.12 mM | 6.4 | m |  | 40 ± 4 µM |  |  | n |  |  |  |  | mixed inhibition |  |
| C=CC1C[N+]2(Cc3ccc([N+](=O)[O-])cc3)CCC1CC2C(O)c1ccnc2ccccc12 (centres unmarked) [CN-(pNO2)] | 7.6 ± 0.7 µM | 0.32 ± 0.04 mM | 6.6 | c |  | 51 ± 2 µM |  |  | n |  |  |  |  |  |  |
| C=CC1C[N+]2(Cc3ccccc3)CCC1CC2C(O)c1ccnc2ccccc12 (centres unmarked) [CN-Bzl] | 2.9 ± 0.3 µM | 0.29 ± 0.04 mM | 42 | c | ~50 times | 121 ± 12 µM |  | 1.1 ± 0.4 mM | m |  |  |  |  |  |  |
| C=CC1C[N+]2(C)CCC1CC2C(O)c1ccnc2ccccc12 (centres unmarked) [CN-Met] | 29 ± 4 µM | 0.35 ± 0.07 mM |  | c |  | 42 ± 4 µM |  | 0.32 ± 0.05 mM | c |  |  |  |  |  | approximately 730 times |
